# Results: patent US11052131B2, “Methods and pharmaceutical compositions for the treatment of kidney cancer” (INSERM (Institut National de la Santé et de la Recherche …, priority 2016, dated 2021)
# “Also recorded” adds a separate entry of the source.
# Key:
# Renca cells [1] = experiment: Wound healing assay; assay type: cell-based, murine; settings: in vitro, 8 or 24 h after serum starvation
# Description: Renca cells were cultivated until sub-confluency. A scratch is realized with a tip on each well and the wound healing is observed after 8 or 24 h after serum starvation.
# recombinant human furin = recombinant human furin (Homo sapiens, UniProt P09958); experiment: In vitro enzymatic digestion of Ela peptides with furin (western blot); assay type: biochemical; settings: furin 0.2×10^−4U, 4 h, western blotting with anti-Ela antibody
# Description: FIG. 4. ProEla processing. […] As assessed by western blotting using an anti-Ela antibody, furin processes the wild-type proEla 32 at the corresponding physiological cleavage sites.
# Ela peptides were digested with furin for 4 h as previously described (Sfaxi et al., 2014, Scamuffa et al., 2008) and were subjected to Western blotting analysis.
# The generated in vitro enzymatic digestion products were subjected to SDS-polyacrylamide gel electrophoresis in 13% gels. The primary antibody used was an anti-Ela 11 (Eurogentec). Horseradish peroxidase-conjugated secondary antibody and enhanced chemiluminescence (ECL+Plus, Amersham) were used for primary antibody revelation according to the manufacturers' instructions using a Chemiluminescence imaging system (GeneGnome, Syngene) (Sfaxi et al., 2014, Scamuffa et al., 2008).
# The cDNA structure of human ELA predicts an 54 amino acids (aa) pre-proEla. Following the removal of the 22 aa of the signal peptide the hormone is released as proEla of 32 aa. […] To study the importance of the proteolytic maturation of […] by the PCs in the mediation of its function we first assessed experimentally proEla 32 processing by furin using an in vitro digestion assay.
# LC3II = experiment: mTOR signalling pathway in serum-starved RENCA cells: autophagy (LC3II); assay type: cell-based, murine; settings: lentiviral expression in RENCA cells, serum starvation
# Description: (§1) RENCA cells overexpressing lentivirus encoding for wild type proEla, mutant proEla, or only tdTomato, were maintained in serum free media for different time. Cells were lysed in RIPA buffer (150 mM NaCl, 50 mM Tris, 1 mM EDTA, 1% NP40, 0.25% sodium deoxycholate, pH8) and were subjected to SDS-PAGE on 12% gels. Cell lysates were analyzed by western blotting for LC3, NFkB, Erk1/2, AKT, S6K or actin using anti phosphor NFkB, anti-phospho Erk, anti-phospho-Akt, anti-phospho S6K. The blots were stripped and reprobed with ERK, AKT or P70 (Cell Signaling) for data normalization. Primary antibodies were visualized using horseradish peroxidase-conjugated secondary antibodies (Amersham), and signals were detected using ECLPlus chemiluminescence system according to the manufacturers' instructions (Amersham).
# (§2) To evaluate the role of Elabela on kidney cancer progression, we used RENCA cells expressing elabela or elabela mutated at the furin site. Cells wera starved of serum for 1, 3, 6, 12 or 24 hours and the effect of Elabela on the mTOR pathway was observed by lookind at the phosphorylation or nfkB, Erk1/2, akt, or S6K.
# Renca cells [2] = experiment: Proliferation assay (IncuCyte ZOOM live cell imaging); assay type: cell-based, murine; settings: 2% foetal calf serum, 50 hours
# Description: FIG. 8. RENCA (20,000 cells 4 cells/well) cells were plated in 96-well plates, proliferation assay was performed using the IncuCyte ZOOM™ live cell imaging system (Essen BioScience, MI USA). This system measures cell density. Cells are routinely propagated in RPMI 1640 medium (Life Technologies) in 2% foetal calf serum at 37° C. Cells are regularly screened for Mycoplasma (ATCC). The plate is placed into the IncuCyte ZOOM™ apparatus and images of the collective cell spreading are recorded every 2 hours for a total duration of 50 hours.
# ERK signaling = experiment: mTOR signalling pathway in serum-starved RENCA cells: ERK signaling; assay type: cell-based, murine; settings: lentiviral expression in RENCA cells, serum starvation
# Description: as §1, §2
# ERK = ERK activation analysis (phospho-ERK western blot) in HEK293A GFP-APJ cells; assay type: cell-based, human; settings: 1 μM; for phosphorylation of ERK: within 5 min of treatment
# Description: (§3) Cells were lysed in RIPA buffer (150 mM NaCl, 50 mM Tris, 1 mM EDTA, 1% NP40, 0.25% sodium deoxycholate, pH8) and were subjected to SDS-PAGE on 12% gels. Cell lysates were analyzed by western blotting for ERK, AKT and P70 phosphorylation using an anti-phospho-ERK; anti-phospho-AKT and anti-phospho-P70 (Cell Signaling), respectively. The blots were stripped and reprobed with ERK, AKT or P70 (Cell Signaling) for data normalization. Primary antibodies were visualized using horseradish peroxidase-conjugated secondary antibodies (Amersham), and signals were detected using ECLPlus chemiluminescence system according to the manufacturers' instructions (Amersham).
# PI3K signaling = experiment: mTOR signalling pathway in serum-starved RENCA cells: PI3K (P(308)AKT); assay type: cell-based, murine; settings: lentiviral expression in RENCA cells, serum starvation
# Description: as §1, §2
# AKT = AKT activation analysis (phospho-AKT western blot) in HEK293A GFP-APJ cells; assay type: cell-based, human; settings: 1 μM; for phosphorylation of AKT: seen after 5 min
# Description: as §3
# mTORC1 pathway = experiment: mTOR signalling pathway in serum-starved RENCA cells: mTORC1 (S6K and S6 phosphorylation); assay type: cell-based, murine; settings: lentiviral expression in RENCA cells, serum starvation
# Description: as §1, §2
# mTORC2 signaling = experiment: mTOR signalling pathway in serum-starved RENCA cells: mTORC2 (P(473)AKT); assay type: cell-based, murine; settings: lentiviral expression in RENCA cells, serum starvation
# Description: as §1, §2
# NFkB signaling = experiment: mTOR signalling pathway in serum-starved RENCA cells: NFkB; assay type: cell-based, murine; settings: lentiviral expression in RENCA cells, serum starvation
# Description: as §1, §2
# P70s6K = experiment: P70 activation analysis (phospho-P70 western blot) in HEK293A GFP-APJ cells; assay type: cell-based, human; settings: 1 μM, same conditions
# Description: as §3
# Renca cells [3] = experiment: Tumorigenicity assay, Renca cells injected subcutaneously into syngeneic Balb/c mice; assay type: in vivo; settings: for tumor growth / tumor progression: 1×10^5 Renca cells stably expressing the construct (lentiviral), subcutaneous, vs control cells with empty vector; for tumor growth inhibition, wild type compared to mutant: subcutaneous Renca tumors, Balb/c mice
# Renca cells [4] = experiment: Kidney tumor progression, subcapsular inoculation of Renca cells in syngenic mice; assay type: in vivo; settings: Renca cells expressing the construct (lentiviral), sub-capsular injection
# Text: FIG. 3. Effect of Elabela expression in the kidney tumor cells (Renca) on kidney tumor progression. Elabela wild type (ela wt) or control lentivirus were used to express ela wt in Renca cells prior their subcapsular inoculation in syngenic mice.
# [5] = biological target: T1, human GFP-APJ fusion protein (Homo sapiens, UniProt P35414); experiment: APJ receptor internalization assay in HEK293A cells expressing GFP-APJ; assay type: cell-based; settings: 1 μM peptide, 30 min, HEK293 cells expressing GFP-APJ
# T1 construct: expressed in transfected cells
# T1 sequence (P35414 1-380): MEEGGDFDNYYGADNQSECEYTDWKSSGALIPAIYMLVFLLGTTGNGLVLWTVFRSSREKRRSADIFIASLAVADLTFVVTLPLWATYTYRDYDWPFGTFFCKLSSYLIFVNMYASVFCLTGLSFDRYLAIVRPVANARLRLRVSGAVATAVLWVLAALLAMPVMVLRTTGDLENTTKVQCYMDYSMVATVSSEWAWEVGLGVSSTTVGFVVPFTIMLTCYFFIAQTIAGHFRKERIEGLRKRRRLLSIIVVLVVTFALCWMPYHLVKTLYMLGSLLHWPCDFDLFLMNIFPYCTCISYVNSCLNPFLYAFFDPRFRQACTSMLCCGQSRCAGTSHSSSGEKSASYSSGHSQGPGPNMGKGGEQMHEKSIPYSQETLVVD
# Description: Cells were fixed with 4% paraformaldehyde for 10 minutes at room temperature and APJ receptor internalization was analyzed using a Nikon epifluorescence microscopy.
# Ligand-induced receptor internalization is a cellular response of APJ to ligand binding and its activation.
# Chain of recombinant human furin (P09958 108-794): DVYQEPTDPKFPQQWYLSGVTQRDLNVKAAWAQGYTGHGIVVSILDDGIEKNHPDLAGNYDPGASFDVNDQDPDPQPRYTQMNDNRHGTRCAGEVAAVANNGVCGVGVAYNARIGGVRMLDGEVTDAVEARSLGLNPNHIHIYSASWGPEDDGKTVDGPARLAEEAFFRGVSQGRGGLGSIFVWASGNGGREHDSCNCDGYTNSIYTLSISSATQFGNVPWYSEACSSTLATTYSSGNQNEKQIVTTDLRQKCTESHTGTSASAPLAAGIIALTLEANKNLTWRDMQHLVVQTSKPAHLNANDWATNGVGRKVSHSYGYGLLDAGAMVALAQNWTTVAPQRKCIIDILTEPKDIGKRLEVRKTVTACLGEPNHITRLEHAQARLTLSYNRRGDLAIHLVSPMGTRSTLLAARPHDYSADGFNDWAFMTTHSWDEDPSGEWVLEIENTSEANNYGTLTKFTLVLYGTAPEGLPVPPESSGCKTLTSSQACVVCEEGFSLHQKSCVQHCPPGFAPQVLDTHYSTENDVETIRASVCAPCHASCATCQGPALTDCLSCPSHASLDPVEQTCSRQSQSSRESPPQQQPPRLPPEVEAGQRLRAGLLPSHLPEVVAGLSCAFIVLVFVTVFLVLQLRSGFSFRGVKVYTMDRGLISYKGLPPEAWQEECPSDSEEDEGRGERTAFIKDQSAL
Substance,"induction of autophagy, estimated by LC3II levels (LC3II)","ERK signaling, determined by ERK phosphorylation (ERK signaling)",phosphorylation of ERK after 15 min (ERK),phosphorylation of ERK (ERK),"PI3K signaling, determined by P(308)AKT (PI3K signaling)",AKT activation compared to effect on ERK activation (AKT),time of peak AKT phosphorylation (AKT),phosphorylation of AKT (AKT),"mTORC2 signaling, determined by P(473)AKT (mTORC2 signaling)",NFkB signaling (NFkB signaling),P70s6K activation (P70s6K),also measured
QRPVNLTMRRKLRKHNCLQRRCMPLHSRVPFP [wild type proEla 32],block in the induction of autophagy,enhanced inhibition of ERK signaling,reduced,able to induce the phosphorylation of ERK,No effect in PI3K signaling,lower AKT activation while compared to their effect on ERK activation,about 15 min,weak visible phosphorylation of AKT,No effect in mTORC2 signaling,No effect in NFkB signaling,failed to induce significant effect,"wound healing of Renca cells (Renca cells [1]): inhibits wound healing of Renca cells; processing by furin, products generated (recombinant human furin; listed as wild type proEla): generated predominantly the mature Ela 11 aa; processing by furin, products generated (recombinant human furin; listed as wild-type proEla 32): generates only the Ela 11 aa; cells proliferation (Renca cells [2]): inhibits renca cells proliferation; ERK activation compared between the peptides (ERK; same conditions): higher as compared to mut proEla and Ela 11 effect; mTORC1 pathway, determined by S6K and S6 phosphorylation (mTORC1 pathway; listed as WT): sustained activation of mTORC1 pathway; also recorded: induced mTORC1 activation; tumor growth / tumor progression (Renca cells [3]; listed as Ela): inhibits tumor progression; tumor growth / tumor progression (Renca cells [3]; listed as wild type proEla): smaller size of tumors; tumor growth / tumor progression (Renca cells [3]; listed as wild-type proEla 32): reduced significantly tumor growth; tumor growth inhibition, wild type compared to mutant (Renca cells [3]): inhibit more efficiently tumor growth while compared to mutant proEla 32; tumor growth inhibition, wild type compared to mutant (Renca cells [3]; listed as Wild type proEla 32): inhibited more efficiently tumor growth while compared to mutant pro Ela 32; tumor progression (Renca cells [4]): inhibits tumor progression"
"mutant proEla 32: proEla 32 in which cleavage sites R31/R32 and R42/R43 were replaced by S31/S32 and S42/S43 (positions 9, 10, 20, 21 of SEQ ID NO: 1) (QRPVNLTMSSKLRKHNCLQSSCMPLHSRVPFP; listed as Homo sapiens)",block in the induction of autophagy,enhanced inhibition of ERK signaling,reduced,able to induce the phosphorylation of ERK,No effect in PI3K signaling,lower AKT activation while compared to their effect on ERK activation,about 15 min,weak visible phosphorylation of AKT,No effect in mTORC2 signaling,No effect in NFkB signaling,failed to induce significant effect,"processing by furin, products generated (recombinant human furin; listed as mut proEla 32): failed to generate any products; processing by furin, products generated (recombinant human furin; listed as mutant peptide ProEla 32): failed to generate any mature Ela products; APJ internalization [5]: able to activate the APJ receptor and mediate its internalization; mTORC1 pathway, determined by S6K and S6 phosphorylation (mTORC1 pathway; listed as MUT): sustained activation of mTORC1 pathway; also recorded: induced mTORC1 activation; tumor growth / tumor progression (Renca cells [3]): reduced significantly tumor growth; tumor growth / tumor progression (Renca cells [3]; listed as mut ProEla): smaller size of tumors; tumor growth / tumor progression (Renca cells [3]; listed as mutant ELA polypeptide): capable of inhibiting tumor progression"
